Measured values from PubChem BioAssay (NCI).
Where “and” joins values, the source holds several entries; their conditions need not be identical. Equal values may be shown once.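 Five compound concentrations were applied to cells in 96-well plates for 48 hours; endpoints were derived by simple linear interpolation of the resulting dose-response curve. The concentration for 50% growth inhibition is given as GI50. TGI denotes the concentration required for complete inhibition of growth.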

Columns and labels:
Test in all cases: NCI tumour cell line growth inhibition, 48 h
[1] = test system: 786-0 renal
[2] = test system: DU-145 prostate
[3] = test system: EKVX NSCLC
[4] = test system: HOP-92 NSCLC
[5] = test system: HS 578T breast
[6] = test system: M14 melanoma
[7] = test system: MALME-3M melanoma
[8] = test system: MDA-MB-231 breast
[9] = test system: OVCAR-5 ovarian
[10] = test system: SNB-19 CNS

| Compound | GI50 [1] [µM] | TGI [1] | GI50 [2] [µM] | TGI [2] | GI50 [3] [µM] | TGI [3] | GI50 [4] [µM] | TGI [4] | GI50 [5] [µM] | TGI [5] | GI50 [6] [µM] | TGI [6] | GI50 [7] [µM] | TGI [7] | GI50 [8] [µM] | TGI [8] | GI50 [9] [µM] | TGI [9] | GI50 [10] [µM] | TGI [10] |
| --- | --- | --- | --- | --- | --- | --- | --- | --- | --- | --- | --- | --- | --- | --- | --- | --- | --- | --- | --- | --- |
| O=C(Nc1nc(-c2ccccc2Cl)cs1)c1cc(-c2ccc(Cl)cc2)nc2ccc(Cl)cc12 | 2.84 | 20 µM | 4.24 | > 100 µM | 7.18 | > 100 µM | 1.42 | 8.43 µM | 2.67 | 25.7 µM | 0.918 | 4.76 µM | 4.77 | 47.7 µM | 2.27 | 15.2 µM | 23.1 | > 100 µM | 3.79 | 67.2 µM |
| CSc1nc(SC)c2c(C)cn(C3OC(C)C(O)C(O)C3O)c2n1 (centres undefined) | – | > 100 µM | – | > 100 µM | – | > 100 µM | – | 83.4 µM | – | > 100 µM | – | > 100 µM | – | > 100 µM | – | > 100 µM | – | > 100 µM | – | > 100 µM |
| O=C(O)c1c[nH]c2c(ccc3[nH]cc(C(=O)O)c(=O)c32)c1=O | – | > 100 µM | – | > 100 µM | – | > 100 µM | – | > 100 µM | – | > 100 µM | – | > 100 µM | – | > 100 µM | – | > 100 µM | – | > 100 µM | – | > 100 µM |
| Cc1cc(Cl)ccc1Nc1nc2c(s1)C(=O)c1ccccc1C2=O | – | 4.38 µM | – | 3.04 µM | – | 21.4 µM | – | 27.2 µM | – | 5.79 µM | – | 1.99 µM | – | 2.92 µM | – | 12.9 µM | – | 8.61 µM | – | 16.3 µM |
| COC1/C=C/OC2(C)Oc3c(C)c(O)c4c(O)c(c(C=NOC(c5ccccc5)c5ccccc5)c(O)c4c3C2=O)NC(=O)/C(C)=C/C=C/C(C)C(O)C(C)C(O)C(C)C(OC(C)=O)C1C (centres undefined) | 1.29 | 3.06 µM | 2.05 | 6.87 µM | 1.82 | 7.67 µM | 0.972 | 2.74 µM | 1.5 | 5.17 µM | 1.18 | 2.82 µM | 1.19 | 3.38 µM | 1.35 | 3.49 µM | 0.984 | 2.49 µM | 1.89 | 6.87 µM |
| CS(=O)(=O)c1ccc(-c2cnc(NCc3ccco3)n3cnnc23)cc1 | > 100 | > 100 µM | > 100 | > 100 µM | > 100 | > 100 µM | 21.4 | > 100 µM | > 100 | > 100 µM | 27 | > 100 µM | 27.5 | > 100 µM | 41.4 | > 100 µM | > 100 | > 100 µM | > 100 | > 100 µM |
| COc1ccc(/C=C/C(=O)c2ccccc2)cc1OC | 14.6 | 17.9 µM and 33.7 µM | – | 24.4 µM and 26.4 µM | 17.7 | 28.7 µM and 35.6 µM | 26.3 | 41 µM and 79.4 µM | 42.3 | 65 µM and > 100 µM | – | 30 µM and 29.6 µM | 18.7 | 35.1 µM and 38 µM | – | 38.1 µM and 52.6 µM | 21.4 | 33.5 µM and 44.1 µM | – | 24.6 µM and 26.7 µM |
| Cc1nc2cc(Nc3nc(Nc4ccc(F)cc4)nc(N4CCCC4)n3)ccc2n1Cc1ccccc1 | 1.85 | 3.46 µM | 1.87 | 3.35 µM | – | – | 1.07 | 2.47 µM | 2.23 | 6.67 µM | 2.06 | 4.29 µM | 1.61 | 3.17 µM | 1.78 | 3.27 µM | 1.72 | 3.42 µM | 3.4 | 87.3 µM |
| COc1cccc(/C=C2\CCc3ccccc3C2=O)c1 | 18.2 | 39.9 µM | 6.07 | 18.7 µM | 13.9 | 29.3 µM | 13.3 | 35.4 µM | 3.33 | 17.9 µM | 17 | 39.6 µM | 12.7 | 29 µM | 22.8 | 87.6 µM | 17.6 | 42.7 µM | 12.4 | 26.7 µM |
| COc1cc2oc(-c3ccc(O)cc3)cc(=O)c2c(OC)c1O | – | > 100 µM | – | > 100 µM | – | > 100 µM | – | > 100 µM | – | > 100 µM | – | > 100 µM | – | > 100 µM | – | > 100 µM | – | > 100 µM | – | > 100 µM |
| NC(CSC1(c2ccc(Cl)cc2)c2ccccc2-c2ccccc21)C(=O)O (centres undefined) | – | 50.9 µM | – | > 100 µM | – | > 100 µM | – | 47.4 µM | – | 45.6 µM | – | 68.4 µM | – | 38.5 µM | – | 35.7 µM | – | 79.5 µM | – | 52.8 µM |
| COc1cc(-c2ccc(=O)oc2C#Cc2ccccc2)cc(OC)c1OC | 32.6 | > 100 µM | 28.3 | > 100 µM | 83.4 | > 100 µM | 16.1 | 39.2 µM | 6.02 | 48.4 µM | 48.9 | > 100 µM | > 100 | > 100 µM | 12.4 | 35.8 µM | > 100 | > 100 µM | 29.9 | 93.3 µM |
| COc1ccc2c(c1)CC1N(C)CCC13CCCCC23 (centres undefined) | – | > 100 µM | – | > 100 µM | – | > 100 µM | – | > 100 µM | – | > 100 µM | – | > 100 µM | – | > 100 µM | – | > 100 µM | – | > 100 µM | – | > 100 µM |
| COc1c(OC)c(OC)c(-c2cc(=O)c3c(OC)c(OC)c(OC)c(OC)c3o2)c(OC)c1OC | – | 37 µM | – | > 100 µM | – | > 100 µM | – | 44.9 µM | – | > 100 µM | – | > 100 µM | – | > 100 µM | – | > 100 µM | – | > 100 µM | – | > 100 µM |
| N/C(=N\C(N)=N\c1nc2ccccc2s1)c1ccnc(Br)c1 | 5.88 | > 100 µM | 15.2 | > 100 µM | 30.4 | > 100 µM | 7.02 | > 100 µM | 3.76 | 46 µM | 3.39 | > 100 µM | 6.22 | > 100 µM | 9.13 | > 100 µM | 62.3 | > 100 µM | 7.1 | > 100 µM |
| O=C(c1ccccc1)c1c2n(c3c1cc(O)c1ccccc13)CCN2 | 9.23 | 31.2 µM | 13.2 | 27.1 µM | 8.63 | 22.5 µM | 2.63 | 9.36 µM | 10.9 | > 100 µM | 7.09 | 19.3 µM | 1.97 | 4.19 µM | 2.13 | 4.51 µM | 0.72 | 7.91 µM | 1.85 | 3.46 µM |
| Cc1cc2nc3c4cc([N+](=O)[O-])ccc4n(CCN(C)C)c3nc2cc1C | 0.628 | 3.02 µM | 0.71 | > 27.8 µM | 0.579 | 5.49 µM | 0.648 | 13.3 µM | 1.39 | 5.87 µM | 0.467 | 1.99 µM | 0.527 | 1.87 µM | 0.602 | > 32.7 µM | 0.651 | 9.82 µM | 0.487 | > 32 µM |
| O=C1c2ccccc2-c2ccccc2C1(Cl)Cl | 2.11 | 4.16 µM | 1.47 | 2.78 µM | 1.46 | 2.88 µM | 1.76 | 4.07 µM | 2.5 | 9.41 µM | 1.26 | 2.65 µM | 0.98 | 2.3 µM | 1.36 | 3.63 µM | – | – | 1.84 | 4.66 µM |
| CC(=O)Nc1ccc(Cc2ccc3[nH]c(=O)cc(C)c3c2)cc1 | – | 98.2 µM | – | > 100 µM | – | > 100 µM | – | > 100 µM | – | > 100 µM | – | > 100 µM | – | > 100 µM | – | > 100 µM | – | > 100 µM | – | > 100 µM |
| CNC(=O)c1cc(Oc2ccc3nc(NC(=O)Nc4cc(C(F)(F)F)cc(C(F)(F)F)c4)sc3c2)ccn1 | 1.42 | 2.86 µM | 1.25 | 2.98 µM | 1.28 | 4.56 µM | 0.301 | 0.949 µM | 1.65 | 4.84 µM | 1.5 | 3.22 µM | 0.908 | 2.49 µM | 0.829 | 2.62 µM | 1.55 | 3.52 µM | 1.34 | 4.43 µM |
| CC/C(=C(/CC)c1ccc(O)cc1)c1ccc(O)cc1 | 5.59 | 18.6 µM | 10 | 22.4 µM | 5.66 | 34.7 µM | 5.1 | 17.2 µM | 4.17 | 32 µM | 4.57 | 15.7 µM | 5.54 | 25.1 µM | 10 | 25.2 µM | 14.1 | 30.1 µM | 10.6 | 25.5 µM |
| Cn1c(=O)c(-c2c(Cl)cccc2Cl)cc2cnc(Nc3ccc(I)cc3)nc21 | 1.95 | 6.22 µM | < 0.01 | 0.139 µM | – | – | 0.0179 | 4.94 µM | < 0.01 | 0.235 µM | – | 0.346 µM | 0.413 | 3.09 µM | 0.259 | 1.29 µM | 0.536 | 3.69 µM | 0.625 | > 100 µM |
